Data published in paper PMC7468108 (Communications Biology, 2020).

Experiments:
hIAPP [1] = molecular target: T1, hIAPP (Homo sapiens, UniProt P10997); assay: Congo red birefringence of hIAPP fibrils formed with the tested molecules; settings: 5-fold molar excess of compound
T1 construct: hIAPP is a 37-amino acid neuroendocrine peptide hormone; purchased Peptide 2.0 (USA)
T1 sequence (P10997 34-70 limits assumed): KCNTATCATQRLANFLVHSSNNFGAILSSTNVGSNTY
Description: (§1) When hIAPP was incubated with 5-fold molar excess of the hybrid molecules, no typical fibrillar assemblies were observed, rather some amorphous aggregates of different sizes were detected (Fig. 4, upper panel).

[2] = molecular target: T2, pre-formed fibrils of hIAPP (Homo sapiens, UniProt P10997); assay: TEM of pre-formed hIAPP fibrils with the tested molecules; settings: 5-fold molar excess of compound
T2 construct: hIAPP is a 37-amino acid neuroendocrine peptide hormone; purchased Peptide 2.0 (USA)
T2 sequence (P10997 34-70 limits assumed): T1 sequence (P10997 34-70 limits assumed)
Description: For efficient treatment of proteinopathies it may be advantageous to disassemble amyloid aggregates/fibrils which are usually already present at the time of diagnosis[75]–[77]. Therefore, the ability of the hybrid molecules to disrupt pre-formed fibrils of Aβ42 and hIAPP was examined. […] According to the ThT kinetic results, this time was sufficient to complete fibril formation (Fig. 2a, d). Then, various doses of the hybrid molecules were added to the pre-formed fibrils and the mixtures were incubated for additional 10 h. The process of disaggregation was monitored by ThT-binding assay, CD spectroscopy, TEM and Congo red staining (Fig. 5).
(§2) Samples (10 µL) were placed for 2 min on 400-mesh copper grids covered with carbon-stabilized Formvar film (Electron Microscopy Sciences (EMS), Hatfield, PA). Excess fluid was removed, and grids were negatively stained with 2% uranyl acetate solution (10 µL) for 2 min. After excess fluid removal, the samples were visualized using a JEM-1400 TEM (JEOL), operated at 80 kV.

hIAPP [3] = molecular target: T1, hIAPP; assay: TEM of hIAPP fibrils formed with the tested molecules; settings: 5-fold molar excess of compound
Description: as §1, §2

[4] = molecular target: T2, pre-formed fibrils of hIAPP; assay: CD spectroscopy of pre-formed hIAPP fibrils with the tested molecules; settings: hIAPP : molecule (1:5)
Description: For efficient treatment of proteinopathies it may be advantageous to disassemble amyloid aggregates/fibrils which are usually already present at the time of diagnosis[75]–[77]. […] Then, various doses of the hybrid molecules were added to the pre-formed fibrils and the mixtures were incubated for additional 10 h. The process of disaggregation was monitored by ThT-binding assay, CD spectroscopy, TEM and Congo red staining (Fig. 5).
The blank was subtracted from the acquired CD spectra. For the CD study in the presence of the tryptophan-galacosylamine molecules, the spectra of hybrid molecules were also recorded separately and subtracted from the respective sample spectra. The normalized data were plotted using Origin pro 2015 software.

## NC(Cc1c[nH]c2ccccc12)C(=O)NC(Cc1c[nH]c2ccccc12)C(=O)O (stereo not shown) [WW]
hIAPP [1]
  Congo red birefringence of hIAPP, in words: clear gold-green birefringence
[2]
  pre-formed hIAPP fibrils by TEM, in words: unchanged
hIAPP [3]
  hIAPP fibril morphology (TEM), in words: clearly visible in a more densely packed network
[4]; wavelength 190.00
  Normalized CD spectra: -1159830.00
[4]; wavelength 190.50
  Normalized CD spectra: -799592.59
[4]; wavelength 191.00
  Normalized CD spectra: -466296.57
[4]; wavelength 191.50
  Normalized CD spectra: -159943.13
[4]; wavelength 192.00
  Normalized CD spectra: 119467.75
[4]; wavelength 192.50
  Normalized CD spectra: 371936.05
[4]; wavelength 193.00
  Normalized CD spectra: 597461.77
[4]; wavelength 193.50
  Normalized CD spectra: 796044.93
[4]; wavelength 194.00
  Normalized CD spectra: 967685.51
[4]; wavelength 194.50
  Normalized CD spectra: 1212380.23
[4]; wavelength 195.00
  Normalized CD spectra: 1290140.24
[4]; wavelength 195.50
  Normalized CD spectra: 1323180.24
[4]; wavelength 196.00
  Normalized CD spectra: 1393960.26
[4]; wavelength 196.50
  Normalized CD spectra: 1424490.23
[4]; wavelength 197.00
  Normalized CD spectra: 1413320.40
[4]; wavelength 197.50
  Normalized CD spectra: 1387150.18
[4]; wavelength 198.00
  Normalized CD spectra: 1299100.11
[4]; wavelength 198.50
  Normalized CD spectra: 1256630.40
[4]; wavelength 199.00
  Normalized CD spectra: 1187490.08
[4]; wavelength 199.50
  Normalized CD spectra: 1142090.27
[4]; wavelength 200.00
  Normalized CD spectra: 1101290.79
[4]; wavelength 200.50
  Normalized CD spectra: 1045740.12
[4]; wavelength 201.00
  Normalized CD spectra: 960554.59
[4]; wavelength 201.50
  Normalized CD spectra: 884170.56
[4]; wavelength 202.00
  Normalized CD spectra: 793224.29
[4]; wavelength 202.50
  Normalized CD spectra: 710397.29
[4]; wavelength 203.00
  Normalized CD spectra: 623023.93
[4]; wavelength 203.50
  Normalized CD spectra: 548091.19
[4]; wavelength 204.00
  Normalized CD spectra: 460178.98
[4]; wavelength 204.50
  Normalized CD spectra: 362812.96
[4]; wavelength 205.00
  Normalized CD spectra: 267913.28
[4]; wavelength 205.50
  Normalized CD spectra: 183033.71
[4]; wavelength 206.00
  Normalized CD spectra: 99125.43
[4]; wavelength 206.50
  Normalized CD spectra: 21202.95
[4]; wavelength 207.00
  Normalized CD spectra: -58441.14
[4]; wavelength 207.50
  Normalized CD spectra: -134432.91
[4]; wavelength 208.00
  Normalized CD spectra: -202839.97
[4]; wavelength 208.50
  Normalized CD spectra: -260187.32
[4]; wavelength 209.00
  Normalized CD spectra: -323573.72
[4]; wavelength 209.50
  Normalized CD spectra: -382447.61
[4]; wavelength 210.00
  Normalized CD spectra: -437399.79
[4]; wavelength 210.50
  Normalized CD spectra: -489520.86
[4]; wavelength 211.00
  Normalized CD spectra: -539599.27
[4]; wavelength 211.50
  Normalized CD spectra: -576249.85
[4]; wavelength 212.00
  Normalized CD spectra: -613623.93
[4]; wavelength 212.50
  Normalized CD spectra: -639995.46
[4]; wavelength 213.00
  Normalized CD spectra: -663323.35
[4]; wavelength 232.00
  Normalized CD spectra: -332238.92
[4]; wavelength 232.50
  Normalized CD spectra: -324045.26
[4]; wavelength 233.00
  Normalized CD spectra: -310464.00
[4]; wavelength 233.50
  Normalized CD spectra: -306656.69
[4]; wavelength 234.00
  Normalized CD spectra: -298160.53
[4]; wavelength 234.50
  Normalized CD spectra: -288025.21
[4]; wavelength 235.00
  Normalized CD spectra: -277617.45
[4]; wavelength 235.50
  Normalized CD spectra: -265647.30
[4]; wavelength 236.00
  Normalized CD spectra: -250898.81
[4]; wavelength 236.50
  Normalized CD spectra: -242222.13
[4]; wavelength 237.00
  Normalized CD spectra: -231613.39
[4]; wavelength 237.50
  Normalized CD spectra: -223355.72
[4]; wavelength 238.00
  Normalized CD spectra: -218172.86
[4]; wavelength 238.50
  Normalized CD spectra: -206535.49
[4]; wavelength 239.00
  Normalized CD spectra: -191737.01
[4]; wavelength 239.50
  Normalized CD spectra: -180445.52
[4]; wavelength 240.00
  Normalized CD spectra: -179664.78
[4]; wavelength 240.50
  Normalized CD spectra: -172296.10
[4]; wavelength 241.00
  Normalized CD spectra: -162102.32
[4]; wavelength 241.50
  Normalized CD spectra: -148455.67
[4]; wavelength 242.00
  Normalized CD spectra: -149233.62
[4]; wavelength 242.50
  Normalized CD spectra: -139443.53
[4]; wavelength 243.00
  Normalized CD spectra: -134411.20
[4]; wavelength 243.50
  Normalized CD spectra: -135270.09
[4]; wavelength 244.00
  Normalized CD spectra: -127740.28
[4]; wavelength 244.50
  Normalized CD spectra: -125334.77
[4]; wavelength 245.00
  Normalized CD spectra: -119297.62
[4]; wavelength 245.50
  Normalized CD spectra: -115863.12
[4]; wavelength 246.00
  Normalized CD spectra: -113285.78
[4]; wavelength 246.50
  Normalized CD spectra: -114529.09
[4]; wavelength 247.00
  Normalized CD spectra: -113972.59
[4]; wavelength 247.50
  Normalized CD spectra: -115521.93
[4]; wavelength 248.00
  Normalized CD spectra: -110033.91
[4]; wavelength 248.50
  Normalized CD spectra: -107626.80
[4]; wavelength 249.00
  Normalized CD spectra: -94087.61
[4]; wavelength 249.50
  Normalized CD spectra: -91943.44
[4]; wavelength 250.00
  Normalized CD spectra: -91987.89
[4]; wavelength 250.50
  Normalized CD spectra: -83982.51
[4]; wavelength 251.00
  Normalized CD spectra: -78786.13
[4]; wavelength 251.50
  Normalized CD spectra: -77492.66
[4]; wavelength 252.00
  Normalized CD spectra: -81506.91
[4]; wavelength 252.50
  Normalized CD spectra: -74477.64
[4]; wavelength 253.00
  Normalized CD spectra: -78503.70
[4]; wavelength 253.50
  Normalized CD spectra: -82822.05
[4]; wavelength 254.00
  Normalized CD spectra: -81558.46
[4]; wavelength 254.50
  Normalized CD spectra: -84392.86
[4]; wavelength 255.00
  Normalized CD spectra: -84114.71
[4]; wavelength 255.50
  Normalized CD spectra: -85462.25
[4]; wavelength 256.00
  Normalized CD spectra: -87106.95
[4]; wavelength 256.50
  Normalized CD spectra: -89048.81
[4]; wavelength 257.00
  Normalized CD spectra: -91287.84
[4]; wavelength 257.50
  Normalized CD spectra: -93824.03
[4]; wavelength 258.00
  Normalized CD spectra: -96657.38
